Results on three compounds are retold here after patent US5883074A, “Potentiators of antibacterial agents” (priority 1995, dated 1999).

Test [1] concerns MRSA. The test is described as follows: Specificity: intrinsic antibacterial activity without antibacterial agent. The test is classed as cell-based, Staphylococcus aureus. The following applies: test compound alone, without methicillin. On the procedure:
In order to ascertain that the test compound is not primarily responsible for inhibition of growth, MRSA cells are grown in the presence of 5 μg/ml test compound as follows: A fresh inoculum of MRSA cells is grown at 35° C. in Mueller-Hinton Broth (MHB) overnight and then diluted 1/50 in the same medium. After regrowth at 35° C. to an OD600 of 0.2-0.4 (1-2 hrs.), the cells are diluted 1/1000 in MHB. In a microtiter plate, 50 μl of this diluted culture is combined with 50 μl MHB containing 10 μg/ml test compound to give starting growth conditions of 5×10^5 cfu/ml in MHB, with 5 μg/ml test compound. The plate is placed in a humidified 35° C. incubator for 5-24 hours, and cell growth or inhibition is read as turbidity (OD600). To be carried forward to the next step of the potentiator screening assay, the test compound should have little or no intrinsic anti-staphylococcal activity (growth should be at least 75% of the growth of the positive control without methicillin, corrected for background), or that activity should be explicable without indicating the probability of human toxicity.

Test [2] concerns MRSA. The test is described as follows: Potentiation screening assay: methicillin MIC reduction in MRSA. The test is classed as cell-based, Staphylococcus aureus. To be noted: 0, 5, and 10 μg/ml test compound. The method, then: After regrowth at 35° C. to an OD600 of 0.2-0.4 (1-2 hrs.), the cells are diluted 1/1000 in MHB. […] The plate is placed in a humidified 35° C. incubator for 5-24 hours, and cell growth or inhibition is read as turbidity (OD600). Two positive and one negative controls for growth are cells grown MHB, cells grown in MHB plus 20 μg/ml methicillin alone (without test compound), and uninoculated MHB respectively.
Compounds which meet the first two criteria for follow-up are evaluated in a standard microdilution assessment of the MIC with methicillin for MRSA. (see Lorian, Antibiotics in Laboratory Medicine, 3rd ed., pp. 72-75 (1991).) In order to be carried further, the MIC of methicillin preferably is reduced in the presence of the potentiator to at most twice the MIC of a susceptible strain for methicillin.
MICs for the compounds were determined in the presence of 0, 5, and 10 μg/ml of each compound. MRSA cells were grown in the presence of 0, 5, and 10 μg/ml test compound and concentrations of methicillin obtained from serial two-fold dilutions starting at 1024 μg/ml to 0.002 μg/ml (This range can be extended or refined as appropriate.) as follows: A fresh inoculum of MRSA cells was grown at 35° C. in Mueller-Hinton Broth (MHB) overnight and then diluted 1/50 in the same medium. After regrowth at 35° C. to an OD600 of 0.2-0.4 (1-2 hrs.), the cells were diluted 1/1000 in MHB. […] The plate was placed in a humidified 35° C. incubator for 24 hours, and cell growth or inhibition was read as turbidity (OD600).

Test [3] deals with methicillin sensitive strain Col8A. The test is described as follows: Methicillin MIC in methicillin sensitive strain with potentiator, FIG. 1. The test is classed as cell-based, Staphylococcus aureus. The following applies: potentiator at 0, 5, and 10 μg/ml.
Test [4] deals with MRSA strain Col. The test is described as follows: Methicillin potentiation (methicillin MIC reduction), FIG. 1. To be noted: potentiator at 0, 5, and 10 μg/ml. Type of test: cell-based, Staphylococcus aureus. The method, then:
(§1) The methicillin MIC at 0, 5, and 10 μg/ml of the potentiating molecules is shown. The structures of the two potentiating molecules are also shown. These potentiators were identified by screening by the methods of Examples 1 and 2, and the MIC reduction evaluated by the method of Example 3.
(§2) Compounds which meet the first two criteria for follow-up are evaluated in a standard microdilution assessment of the MIC with methicillin for MRSA. (see Lorian, Antibiotics in Laboratory Medicine, 3rd ed., pp. 72-75 (1991).) In order to be carried further, the MIC of methicillin preferably is reduced in the presence of the potentiator to at most twice the MIC of a susceptible strain for methicillin. (However, that level of reduction is not essential, since in particular circumstances a potentiator which provides a lesser reduction in the MIC can be useful.) In cases where susceptibility breakpoints are not available or the organism is not resistant to the drug whose action is being potentiated, the MIC preferably must be reduced by several twofold dilutions. We describe herein two compounds identified as having methicillin potentiating activity. These two potentiators meet the first three desired pharmacologic criteria as described above: (1) Potentiation of an anti-bacterial agent, (2) Little or no inhibition of the target organisms when used alone, and (3) Ability to reduce the MIC of an antibacterial agent to less than or equal to two times the MIC of an equivalent bacterial strain susceptible to that agent.
(§3) MICs for the compounds were determined in the presence of 0, 5, and 10 μg/ml of each compound. MRSA cells were grown in the presence of 0, 5, and 10 μg/ml test compound and concentrations of methicillin obtained from serial two-fold dilutions starting at 1024 μg/ml to 0.002 μg/ml (This range can be extended or refined as appropriate.) as follows: A fresh inoculum of MRSA cells was grown at 35° C. in Mueller-Hinton Broth (MHB) overnight and then diluted 1/50 in the same medium. After regrowth at 35° C. to an OD600 of 0.2-0.4 (1-2 hrs.), the cells were diluted 1/1000 in MHB. In a microtiter plate, 50 μl of this diluted culture were combined with 50 μl MHB containing 0, 10, or 20 μg/ml test compound to give starting growth conditions of 5×10^5 cfu/ml in MHB, with 0, 5, or 10 μg/ml test compound. The plate was placed in a humidified 35° C. incubator for 24 hours, and cell growth or inhibition was read as turbidity (OD600).

The test system of test [5] is MRSA strain MRSA76. The description is as above. The test is classed as cell-based, Staphylococcus aureus. The following applies: potentiator at 0, 5, and 10 μg/ml. The method, then: as §1, §2, §3
Test [6] has as its system MRSA strain Col. The test is described as follows: Potentiating effect for 17 antimicrobial agents (MIC reduction), FIG. 2. Type of test: cell-based, Staphylococcus aureus. On the procedure: FIG. 2 is a table showing the potentiating effect of one of the potentiating molecules from FIG. 1 for 17 antimicrobial agents in MRSA strain Col. The MIC is shown at 0, 5, and 10 μg/ml of potentiator.
as §3
The procedures used in Examples 1-3 to determine potentiation activity, and MIC reduction have been carried out using larixol acetate as the test compound and various antibacterial agents in place of methicillin. […]

Test [7] concerns MRSA strain Col. The test is described as follows: Imipenem potentiation (MIC reduction), FIG. 4. The test is classed as cell-based, Staphylococcus aureus. To be noted: compound at 10 μg/ml. On the procedure: (§4) FIG. 4 is a table showing the imipenem potentiation effect of the second compound from FIG. 1 at 10 μg/ml in 5 MRSA strains (Col, Col 2278, sa 038, Spain 356, and Spain 195).

The test system of test [8] is MRSA strain Spain 195. The test is described as follows: Imipenem potentiation (MIC reduction), FIG. 4. The test is classed as cell-based, Staphylococcus aureus. To be noted: compound at 10 μg/ml. On the procedure:
as §4

For test [9], the system named is MRSA strain Col 2278. The test is described as follows: Imipenem potentiation (MIC reduction), FIG. 4. Type of test: cell-based, Staphylococcus aureus. To be noted: compound at 10 μg/ml. On the procedure:
as §4

The test system of test [10] is MRSA Col cells. The test is described as follows: Time-kill curve with methicillin. Type of test: cell-based, Staphylococcus aureus. The method, then: FIG. 3a is a graph of the number of viable MRSA Col cells/ml versus growth time in hours as determined by the method of Example 4. The graph presents the time kill curve for the first potentiating compound from FIG. 1 at 10 μg/ml with methicillin at 20 μg/ml, and curves for controls (drug-free, methicillin only, and potentiator only). Viable cell counts for all controls were greater than 5×10^8 cells/ml at 24 hours, while the viable cell count for methicillin plus potentiator was approximately 5×10^3 cells/ml after 24 hours.
A standard time-kill method (see Eliopolous & Moellering, Ch. 13 in Antibiotics in Laboratory Medicine, 3rd ed., Lorian ed., at pp. 441-444) is used to characterize whether the potentiator-drug combination is bacteriostatic or bactericidal. As controls, normal growth of the pathogen (without drug or potentiator) and the effects of the drug alone and the potentiator alone are assessed using the same inoculum culture as is used in the combination time-kill test. Either bacteriostatic or bactericidal effect should be confirmed for the potentiators to progress to further testing.

Test [11] deals with Enterococcus faecium. The test is described as follows: Ampicillin potentiation screen. Type of test: cell-based. The following applies: highly ampicillin-resistant Enterococcus faecium, ampicillin alone. The method, then: The ampicillin potentiation screen is a high-throughput (96 well), whole cell assay in which compounds of unknown pharmacological activity are tested for their ability to induce an ampicillin-susceptible phenotype in highly ampicillin-resistant Enterococcus faecium (MIC of ampicillin>100μg/ml). These highly ampicillin-resistant bacteria are grown in the presence of ampicillin and various test compounds. The concentration of ampicillin used is well below the MIC for the resistant cells, but higher than the MIC for the isogeneic susceptible cells. Therefore, resistant cells can grow in the presence of the ampicillin without test compound, but the growth of susceptible cells is repressed. Growth is assessed after 5-24 hours by turbidity. Compounds are also tested for intrinsic antibacterial activity in the absence of ampicillin. Compounds which repress Enterococcus faecium growth when used together with ampicillin, which show no, or only a little, intrinsic antibacterial activity, are considered potentiators. […]
A fresh inoculum of E. faecium cells are grown at 35° C. in Brain-Heart Infusion Broth (BHI) overnight and then diluted 1/50 in the same medium. […] The plate is placed in a humidified 35° C. incubator for 24 hours, and cell growth or inhibition is read as turbidity (OD600). […]

SMILES strings stand for the structures. Bounds are passed on as bounds.

For `C=CC(C)(O)CCC1C(=C)CC(OC(C)=O)C2C(C)(C)CCCC12C` (stereo not drawn) [larixol acetate], the intrinsic antimicrobial activity entry in test [1] is given as “not exhibiting intrinsic antimicrobial activity”. The “effect on the MIC for methicillin” value in test [2] is on record as “reduce the MIC for methicillin”. The entries for the “reduction of methicillin MIC” value in test [3], in test [4] and in test [5] were “absence of a reduction in the MIC”, “reducing the methicillin MIC” and “reducing the methicillin MIC”, respectively. The “MIC reduction of antimicrobial agents” value in test [6] (potentiator at 0, 5, and 10 μg/ml, range of β-lactams, including methicillin, cefazolin, and imipenem) was “Significant MIC reduction”. Further, the “MIC with potentiator relative to MIC of the antibacterial agent in the absence of the potentiator” value in [6] (some β-lactams, larixol acetate as potentiator) was “less than 10^-3”. The “imipenem MIC reduction” value in test [7], in test [8] and in [9] was “three orders of magnitude” throughout.

For the compound `COc1ccc2c(c1)CCC1C2CCC2CC(O)CCC21C` (stereo not drawn) [HMM-dodecahydrochrysene, 2-hydroxy-8-methoxy-4a-methyl-1,2,3,4,4a,4b,5,6,10b,11,12,12a-dodecahydrochrysene], the intrinsic antimicrobial activity entry in test [1] was “not exhibiting intrinsic antimicrobial activity”. Moreover, the “effect on the MIC for methicillin” value in test [2] is listed as “reduce the MIC for methicillin”. The “reduction of methicillin MIC” value in test [3] is given as “absence of a reduction in the MIC”; in test [4], “reducing the methicillin MIC”; in [5], “reducing the methicillin MIC”. In addition, the “viable cell count, methicillin plus potentiator” value in [10] (potentiator 10 μg/ml with methicillin 20 μg/ml, after 24 hours) is reported as “approximately 5×10^3 cells/ml”. The “viable cell count, potentiator only (control)” value in test [10] (potentiator only, at 24 hours) was “greater than 5×10^8 cells/ml”.

The MIC is the lowest concentration found to suppress growth. For `CC1(C)S[C@@H]2[C@H](NC(=O)[C@H](N)c3ccccc3)C(=O)N2[C@H]1C(=O)O` [ampicillin], the MIC in [11] was above 100 µg/mL.
